Consider nine compounds from PubChem BioAssay (NCI).

Structures are written as SMILES. Where “and” joins values, the source holds several entries; their conditions need not be identical. Equal values may be shown once.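 These data come from cells grown in 96-well plates and exposed to compound for 48 hours at five concentrations. Here, GI50 denotes the concentration required for 50% inhibition of growth. TGI: concentration producing complete growth inhibition.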

Some test systems named below: ACHN renal; OVCAR-4 ovarian; U251 CNS; NCI-H226 lung; SNB-19 CNS; EKVX NSCLC; LOX IMVI melanoma; HCT-15 colon.
Common to all, as to experiment: NCI tumour cell line growth inhibition, 48 h

Take `NNC(=O)C(O)C(O)C(O)CO` (stereo unspecified): the TGI with ACHN renal, in the assay with OVCAR-4 ovarian, with U251 CNS, with NCI-H226 lung, in the assay with SNB-19 CNS and in the assay on EKVX NSCLC was above 100 µM throughout. The values for the TGI in the assay with LOX IMVI melanoma and in the assay with HCT-15 colon were above 100000 nM and above 100 µM, respectively.
`O=c1ncc(I)c[nH]1`: the GI50 is above 100 µM in the assay with ACHN renal; above 100 µM with OVCAR-4 ovarian; above 100 µM in the assay with U251 CNS; above 100000 nM with NCI-H226 lung; above 100 µM in the assay on SNB-19 CNS; above 100 µM in the assay with EKVX NSCLC. Moreover, the GI50 with LOX IMVI melanoma and in the assay with HCT-15 colon was above 100 µM throughout. The TGI in the assay on ACHN renal, in the assay on OVCAR-4 ovarian, in the assay with U251 CNS, in the assay with NCI-H226 lung, in the assay with SNB-19 CNS and with EKVX NSCLC was above 100 µM throughout. Besides, the TGI is above 100000 nM in the assay with LOX IMVI melanoma and above 100 µM with HCT-15 colon.
Take `CS(=O)(=O)c1nccc(-c2c(-c3cccc(OCc4ccccc4)c3)nc3sccn23)n1`: the GI50 in the assay on ACHN renal is 36.4 µM; in the assay on OVCAR-4 ovarian, 9.97 µM; in the assay on U251 CNS, 19.6 µM; in the assay with NCI-H226 lung it was 12100 nM; with SNB-19 CNS it was above 43.8 µM; in the assay on EKVX NSCLC it was 26.4 µM. Further, the GI50 in the assay on LOX IMVI melanoma was 5.13 µM; in the assay on HCT-15 colon it was 12 µM. Also, the TGI in the assay with ACHN renal, in the assay with OVCAR-4 ovarian, in the assay on U251 CNS, in the assay with NCI-H226 lung, in the assay with SNB-19 CNS and in the assay with EKVX NSCLC was above 100 µM in each case. The TGI with LOX IMVI melanoma was above 100000 nM; with HCT-15 colon, above 100 µM.
Consider `C[C@@]1([C@H](OC(=O)c2cccc3ccccc23)C(N)=O)CO1`, for which the GI50 is 0.396 µM in the assay with ACHN renal; 4.66 µM in the assay with OVCAR-4 ovarian; 0.997 µM with U251 CNS; 1460 nM in the assay on NCI-H226 lung; 5.75 µM with SNB-19 CNS; 4.53 µM in the assay with EKVX NSCLC. The GI50 in the assay on LOX IMVI melanoma is 0.316 µM; in the assay with HCT-15 colon it was 1.72 µM. The TGI was 2.2 µM in the assay with ACHN renal; above 76.6 µM in the assay with OVCAR-4 ovarian; 7.89 µM in the assay with U251 CNS; 5.9 µM in the assay on NCI-H226 lung; above 37.5 µM in the assay with SNB-19 CNS; 15.7 µM in the assay with EKVX NSCLC. The values for the TGI in the assay on LOX IMVI melanoma and with HCT-15 colon were 1620 nM and 10.7 µM, respectively.
On to `CC(C)C[C@H](NC(=O)[C@H](Cc1ccccc1)NC(=O)c1cnccn1)B(O)O`, for which the GI50 in the assay on ACHN renal is 0.00181 µM; in the assay on OVCAR-4 ovarian it was < 0.0113 µM and 0.00315 µM; in the assay with U251 CNS, 0.00256 µM; in the assay on NCI-H226 lung it was < 10 nM and 0.89 nM; in the assay with EKVX NSCLC, < 0.0175 µM and 0.00419 µM; in the assay on LOX IMVI melanoma, 0.00135 µM. Moreover, in the assay with HCT-15 colon, the GI50 was 0.00237 µM. The TGI is 0.179 µM in the assay with OVCAR-4 ovarian; < 0.01 µM and 0.00206 µM with NCI-H226 lung; 2.06 µM and 0.417 µM and 2.33 µM in the assay on EKVX NSCLC; < 12.9 nM and 4.13 nM in the assay on LOX IMVI melanoma.
Consider `O=C1C2=C(C(=O)c3c(O)ccc(O)c31)N(c1cccnc1)Cc1ccccc1O2`, for which the GI50 was 0.0612 µM with ACHN renal; 0.651 µM in the assay with U251 CNS; 703 nM with NCI-H226 lung; 2.6 µM in the assay with SNB-19 CNS; 1.18 µM in the assay on EKVX NSCLC; 0.127 µM with LOX IMVI melanoma. In addition, the GI50 with HCT-15 colon was 0.167 µM. Moreover, the TGI in the assay with ACHN renal stood at 0.195 µM; in the assay on U251 CNS, 2.76 µM; in the assay with NCI-H226 lung, 1.82 µM; in the assay on SNB-19 CNS it was 10.7 µM; in the assay on EKVX NSCLC it was 5.74 µM; in the assay on LOX IMVI melanoma, 560 nM. Also, the TGI with HCT-15 colon came out at 0.648 µM.
Regarding `COc1ccc(-c2cnc(SCC(=O)c3c(C)n(C)n(-c4ccccc4)c3=O)n2-c2ccc(OC)cc2)cc1`, the GI50 in the assay with ACHN renal was above 50 µM; in the assay on U251 CNS it was above 50 µM; in the assay with NCI-H226 lung, above 50000 nM; with SNB-19 CNS it was above 50 µM; in the assay on EKVX NSCLC, 29.7 µM; in the assay with LOX IMVI melanoma, 46.5 µM. In addition, the GI50 with HCT-15 colon was above 50 µM. For the same compound, the TGI is above 50 µM with ACHN renal; above 50 µM in the assay on U251 CNS; above 50 µM in the assay on NCI-H226 lung; above 50 µM in the assay on SNB-19 CNS; above 50 µM in the assay on EKVX NSCLC; above 50000 nM with LOX IMVI melanoma. The same compound gave a TGI with HCT-15 colon above 50 µM.
Turning to `O=S1(=O)OCc2ccccc21`, the TGI with ACHN renal, in the assay with OVCAR-4 ovarian, in the assay on U251 CNS, in the assay with NCI-H226 lung, with SNB-19 CNS and in the assay on EKVX NSCLC was above 100 µM each time. Also, in the assay with HCT-15 colon, the TGI was above 100 µM.
Regarding `Cc1c(C)n(CC(O)CNC2CCCCC2C)c2ccccc12` (stereo unspecified), the GI50 was 13.3 µM in the assay on ACHN renal; 12 µM with OVCAR-4 ovarian; 13.8 µM with U251 CNS; 17200 nM in the assay on NCI-H226 lung; 15.5 µM in the assay with SNB-19 CNS; 14.8 µM with LOX IMVI melanoma. The GI50 with HCT-15 colon was 12.6 µM. Further, the TGI turned out to be 26 µM with ACHN renal; 24.4 µM in the assay on OVCAR-4 ovarian; 26.7 µM with U251 CNS; 35.9 µM in the assay with NCI-H226 lung; 30.9 µM with SNB-19 CNS; 28000 nM in the assay on LOX IMVI melanoma. In addition, in the assay on HCT-15 colon, the TGI stood at 26.5 µM.
